This note sets out measurements from PubChem BioAssay AID1996.

Converted amounts (≈) assume the structure as drawn. “And” between values parts separate entries of the source, which are not always exact repeats. Equal entries are not always repeated.

As usually defined, the kinetic solubility is solubility judged after dilution from a stock solution rather than from solid.

For this data set the following is noted: buffer; pH 7.4; 200.0 µM.
Consider `C#CC(C)(C)NC(=O)c1ccc(-c2ccccc2F)cc1`, for which the solubility (kinetic) was under 0.6 µg/mL.
Consider `COc1ccc(OCC(=O)OCC(=O)NC2CC2)cc1`, for which the kinetic solubility is over 41.9 µg/mL.
In turn, `Cc1cccnc1NC(=O)c1ccc(COc2ccccc2)o1` showed a solubility (kinetic) of over 46.3 µg/mL.
With `Nc1nnc(SCC(=O)NC2CCCCCC2)s1`, the kinetic solubility was over 43 µg/mL.
Under `CSc1ncccc1C(=O)OCC(=O)NCCc1ccccc1` stands 27.9 µg/mL (≈ 84.4 µM); under `O=C(CN1CCOCC1)NNC(=S)Nc1ccc(Cl)cc1`, over 49.3 µg/mL.
On to `CCN1C(=O)c2ccc(C(=O)Nc3ncc(C)s3)cc2C1=O`, for which the kinetic solubility came out at 5.8 µg/mL (≈ 18.4 µM).
Under `CC1CCCC(N2CCN(C(=O)c3ccccc3F)CC2)C1` (centres undefined) stands over 45.7 µg/mL; under `O=C(NCCNC(=O)c1ccco1)c1ccc(F)cc1`, over 41.4 µg/mL; under `O=C(Cc1ccsc1)NCC(=O)Nc1ccccc1Br`, over 53 µg/mL.
Consider `c1ccc(CNc2nc(-c3ccccn3)nc3ccccc23)cc1`, for which the kinetic solubility turned out to be 29.1 µg/mL (≈ 93.2 µM).
In turn, `CCCN1CCN(C(=O)c2oc3c(Cl)cccc3c2C)CC1` gave a kinetic solubility of 35.7 µg/mL (≈ 111 µM).
For `COc1ccc(S(=O)(=O)N2CCOCC2)cc1NC(=O)CSc1nc(C)c(C)c(C)n1`, the solubility (kinetic) is 8.5 µg/mL (≈ 18.2 µM).
Next, `CC(C)(C)c1ccc(/C=C(\C#N)C(=O)NCCN2CCOCC2)cc1`: 30.9 µg/mL (≈ 90.5 µM); `Cl.NCc1ccccc1CS(=O)(=O)N1CCOCC1`: over 46 µg/mL.
The compound `O=C(CNC(=O)Cc1ccccc1)NCc1cccs1` gave a kinetic solubility of 41.9 µg/mL (≈ 145 µM).
Next, `CCOC(=O)c1c(CC(C)C)csc1N`: 2.1 µg/mL (≈ 9.24 µM); `O=C(c1ccc(COc2ccccc2Cl)o1)N1CCOCC1`: 34.4 µg/mL (≈ 107 µM); `NC(=O)COC(=O)CSc1ccc2ccccc2c1`: over 41.3 µg/mL.
`Cc1nnc(NC(=O)CN2CC(C)OC(C)C2)s1` (centres undefined) displayed a kinetic solubility of over 40.6 µg/mL.
Consider `O=C(COC(=O)c1ccc[n+]([O-])c1)Nc1ccc([N+](=O)[O-])cc1Cl`, for which the solubility (kinetic) is over 52.8 µg/mL.
The compound `NC(=O)Cn1cc(C(=O)COc2ccccc2)c2ccccc21` returned a kinetic solubility of 14.6 µg/mL (≈ 47.4 µM).
Under `Cc1ccc(C)c(OCCNc2ncccc2[N+](=O)[O-])c1` stands 0.3 µg/mL (≈ 1.04 µM).
`O=C(Nc1nccs1)c1cccc2ccccc12` showed a solubility (kinetic) of 1.9 µg/mL (≈ 7.47 µM).
Under `Cn1c(=O)n(C)c2cc(NC(=O)COc3ccccc3)ccc21` stands over 46.7 µg/mL.
Compound `Cc1cc(C)nc(SCC(=O)c2ccc(F)c(C)c2)n1` came in with a solubility (kinetic) of 14.7 µg/mL (≈ 50.6 µM).
With `O=C(OCc1c(F)cccc1Cl)c1cccnc1Cl`, the solubility (kinetic) is 5.1 µg/mL (≈ 17 µM).
For the compound `CC1CCN(C(=O)CSc2nc(C3CC3)nc3ccccc23)CC1`, the solubility (kinetic) was over 51.2 µg/mL.
`O=C(NCc1csc(-c2cccs2)n1)Nc1ccc(C(F)(F)F)cc1` came in with a kinetic solubility of under 0.3 µg/mL.
Compound `O=c1oc2cc(Br)ccc2n1Cc1ccccc1` registered a kinetic solubility of under 0.7 µg/mL.
On to `COC(=O)C(O)(c1ccc(N(C)C)cc1)C(F)(F)F` (centres undefined), for which the solubility (kinetic) came out at 38 µg/mL (≈ 137 µM).
`COc1ccc2c(c1)c(C(C)=O)c(C)n2CCc1ccccc1`: the solubility (kinetic) was under 0.7 µg/mL.
In the case of `CN(C(=O)CCn1c(=S)oc2ccccc21)C1CCCCC1`, the kinetic solubility is over 47.8 µg/mL.
Compound `CC(C)/C(C=O)=C(/NC1CCCCC1)c1ccccc1` registered a kinetic solubility of 0.9 µg/mL (≈ 3.32 µM).
As to `O=C(CC1SC(N2CCOCC2)=NC1=O)Nc1ccccc1F` (centres undefined), the solubility (kinetic) was over 50.6 µg/mL.
`COc1cc(CC2C(=O)Nc3ccccc32)cc(C)c1O` (centres undefined) displayed a kinetic solubility of over 42.5 µg/mL.
Under `CCC(=O)NC(c1ccccc1)c1c(O)ccc2ccccc12` (centres undefined) stands 0.9 µg/mL (≈ 2.95 µM).
Turning to `CCc1c(C)c(C#N)c2[nH]c3ccccc3n2c1=S`, the kinetic solubility was 6.6 µg/mL (≈ 24.7 µM).
Next, `CC(=O)C1=C(O)C(=O)N(c2ccc(O)cc2)C1c1cccc([N+](=O)[O-])c1` (centres undefined): over 53.1 µg/mL; `O=C(COC(=O)c1ccc(Cl)nc1)Nc1ccc2c(c1)OCO2`: over 50.2 µg/mL; `Cc1ccc2nc(SCC(=O)Nc3nonc3C)[nH]c2c1`: over 45.5 µg/mL.
Next, `CCN(CC)CCC/C(=N\O)C(O)(c1ccccc1)c1ccccc1`: over 51.1 µg/mL; `CC(=O)c1ccc(NC(=O)[C@@H]2CCCN2C(=O)OC(C)(C)C)cc1`: over 49.9 µg/mL; `O=C(CCC(=O)c1ccc(Br)cc1)Nc1ccc(F)cc1`: under 0.7 µg/mL.
`N#Cc1cccc(S(=O)(=O)NCc2nnc3ccccn23)c1` yielded a kinetic solubility of over 47 µg/mL.
`COc1ccc(CCNC(=O)c2c(C)nc3ccccn23)cc1OC` had a kinetic solubility of over 50.9 µg/mL.
With `Cc1ccc(CC(=O)Nc2ccc(Cl)cn2)cc1`, the solubility (kinetic) amounted to 8.4 µg/mL (≈ 32.2 µM).
In the case of `O=C(O)CCNC(=O)C12CC3CC(CC(C3)C1)C2`, the solubility (kinetic) was over 37.7 µg/mL.
Under `COC(=O)C1CCCN1C(=O)C12CC3CC(CC(C3)C1)C2` (centres undefined) stands 41.9 µg/mL (≈ 144 µM); under `COc1ccc(OC)c(C2NC(=O)CCC2[N+](=O)[O-])c1` (centres undefined), 40.1 µg/mL (≈ 143 µM); under `CCOC(=O)C1CCN(C(=S)NC2CC3C=CC2C3)CC1` (centres undefined), over 46.3 µg/mL.
Under `Cc1cccc(/N=C2/NC(=O)C(Cc3ccccc3)S2)n1` (centres undefined) stands 0.3 µg/mL (≈ 1.01 µM).
With `NC(=O)CN1C(=O)C(=O)N(Cc2ccc(F)cc2)C1=O`, the kinetic solubility is over 41.9 µg/mL.
`Cc1cc(NC(=O)NC2CC(=O)N(c3ccc4c(c3)OCCO4)C2)no1` (centres undefined) yielded a kinetic solubility of 48.5 µg/mL (≈ 135 µM).
Turning to `O=C(O)c1cc(NC(=O)c2ccco2)cc(NC(=O)c2ccco2)c1`, the kinetic solubility was found to be 44.4 µg/mL (≈ 130 µM).
Consider `CC(NC(=O)c1cccc(F)c1)C1CC2CCC1C2` (centres undefined), for which the solubility (kinetic) turned out to be 19.9 µg/mL (≈ 76.1 µM).
Compound `COc1ccccc1C1CCN(Cc2ccc(Cl)c(Cl)c2)CC1` registered a kinetic solubility of under 0.8 µg/mL.
In the case of `COc1ccccc1CNC(=O)CCc1ccccc1`, the kinetic solubility is over 40.4 µg/mL.
`O=[N+]([O-])c1ccc(Sc2ccc(F)cc2)nc1` registered a solubility (kinetic) of 0.7 µg/mL (≈ 2.8 µM).
On to `CN(C(=O)c1ccco1)c1ccccc1C(=O)O`, for which the kinetic solubility was over 36.8 µg/mL.
Compound `N/C(=N\O)c1cccc(CS(=O)(=O)c2ccccn2)c1` displayed a kinetic solubility of 37 µg/mL (≈ 127 µM).
The compound `CC1CN(c2ccnc3cc(Cl)ccc23)CC(C)O1` (centres undefined) registered a solubility (kinetic) of over 41.5 µg/mL.
Regarding `Cc1ccc(C(=O)NCCCNC(=O)COc2ccccc2Cl)cn1`, the kinetic solubility was over 54.3 µg/mL.
In turn, `CCn1cnc2c1c(=O)n(CC(=O)O)c(=O)n2Cc1ccccc1` returned a solubility (kinetic) of over 49.2 µg/mL.
`Cc1ccc(S(=O)(=O)/C(=C\N(C)C)c2cnc(Cl)s2)cc1` registered a solubility (kinetic) of over 51.4 µg/mL.
Compound `COc1ccc(N2CCN(CC(=O)c3ccccc3)CC2)cc1` returned a kinetic solubility of over 46.6 µg/mL.
`CC(NC(=O)c1ccco1)c1nc(-c2ccccc2)no1` (centres undefined) gave a solubility (kinetic) of 31.7 µg/mL (≈ 112 µM).
As for `CNC(=S)N1CCN(c2nc(-c3ccc(F)cc3)cs2)CC1`, the kinetic solubility turned out to be 2.5 µg/mL (≈ 7.43 µM).
Next, `CCCCn1c(-c2cccs2)nc2oc3ccccc3c(=O)c2c1=O`: 1.2 µg/mL (≈ 3.41 µM); `CCCCN1C2=NC(c3ccccc3)CN2c2ccccc21.Cl` (centres undefined): 44.1 µg/mL.
On to `CNCCCC12CCC(c3ccccc31)c1ccccc12.Cl`, for which the kinetic solubility is 45.8 µg/mL and > 47.1 µg/mL.
`COc1ccccc1NC(=O)COC(=O)C1CC2CCCC(C1)C2=O` (centres undefined) returned a solubility (kinetic) of over 51.8 µg/mL.
Under `Cc1cccc(NC(=O)c2ccc3c(c2)C(=O)N(c2ccccn2)C3=O)c1C` stands 2.2 µg/mL (≈ 5.92 µM); under `COc1ccccc1-c1noc(CCCC(=O)NC2CCCC2)n1`, 44.4 µg/mL (≈ 135 µM).
For `CC(C)N(Cc1nc(-c2ccccc2)no1)C(=O)C(Cl)(Cl)Cl`, the kinetic solubility amounted to 5.9 µg/mL (≈ 16.3 µM).
The compound `COc1ccc(CCNC(=O)c2cccc3ccccc23)cc1OC` came in with a kinetic solubility of 38 µg/mL (≈ 113 µM).
`COc1ccc(Cl)cc1NS(=O)(=O)c1cn(C)nc1C` registered a solubility (kinetic) of over 47.4 µg/mL.
Under `COC(=O)Cn1cc(C(=O)C(F)(F)F)c2ccccc21` stands 13.2 µg/mL (≈ 46.3 µM); under `COC(=O)c1ccc(N2CCN(C(C)=O)CC2)c(NC(=O)c2cccnc2)c1`, over 57.4 µg/mL; under `Cc1ccc(NC(=O)CC2(CC(=O)O)CCCC2)c(C)c1`, 40.8 µg/mL (≈ 141 µM).
`CC(=O)Nc1ccc(N2C(=O)CC(Sc3nccc(C)n3)C2=O)cc1` (centres undefined) gave a solubility (kinetic) of over 53.5 µg/mL.
Under `Cc1c(NC(=O)c2ccc(S(=O)(=O)Nc3ccccc3F)cc2)c(=O)n(-c2ccccc2)n1C` stands over 72.1 µg/mL.
The compound `CC(=O)N1c2ccccc2C(CBr)=CC1(C)C` gave a kinetic solubility of 31.8 µg/mL (≈ 108 µM).
Next, `O=C(COC(=O)c1ccco1)NCCc1ccc(Cl)cc1`: over 46.2 µg/mL; `CSc1ccccc1NC(=O)Cc1ccccc1`: over 38.6 µg/mL.
Compound `CC(O)CN1CC(O)=C(c2nc3ccccc3s2)C1=N` (centres undefined) had a solubility (kinetic) of 17.8 µg/mL (≈ 61.5 µM).
The compound `O=C(Nc1ccccc1)Nc1ccc2ccccc2c1` returned a solubility (kinetic) of under 0.3 µg/mL.
In turn, `CC(C)(C)N(Cc1ccccc1)C(=O)COC(=O)c1ccc2ccccc2n1` gave a solubility (kinetic) of 3 µg/mL (≈ 7.97 µM).
On to `O=C(O)C1C2C=CC(C2)C1C(=O)Nc1cccc(C(F)(F)F)c1` (centres undefined), for which the kinetic solubility is 10.3 µg/mL (≈ 31.7 µM).
Under `Nc1nc(NCc2ccco2)nc(NC2CCCCC2)c1[N+](=O)[O-]` stands 0.3 µg/mL (≈ 0.903 µM); under `CC(C)(C)N(Cc1ccccc1)C(=O)COC(=O)C1CCCCC1`, 24.4 µg/mL (≈ 73.6 µM); under `CS(=O)(=O)N1CCCC(C(=O)Nc2cccc(F)c2)C1` (centres undefined), over 45.1 µg/mL.
Under `CCC(C)c1ccc(NC(=S)N2CCCC2)cc1` (centres undefined) stands over 39.4 µg/mL.
Under `N#CC(=C=[N-])c1nc2ccccc2nc1-[n+]1cccc(NC(=O)c2cccs2)c1` stands 1.5 µg/mL (≈ 3.78 µM).
Consider `O=C1CCC(C(=O)Nc2cccc(Br)c2)N1` (centres undefined), for which the kinetic solubility is over 42.5 µg/mL.
On to `CC1CCC2(CC1)SCC(=O)N2c1ccc(F)cc1` (centres undefined), for which the solubility (kinetic) was determined as 39.5 µg/mL (≈ 141 µM).
Next, `CCC1CCCCN1C(=O)CSc1nc(C)cc(C)n1` (centres undefined): over 44 µg/mL; `COc1nc(Nc2ccccc2)nc(OC)n1`: over 34.8 µg/mL.
In turn, `O=C(CCCCCN1C(=O)c2ccccc2C1=O)Nc1cccc(O)c1` came in with a solubility (kinetic) of 38.4 µg/mL (≈ 109 µM).
`COc1ccc(NC(=O)/C=C/C(=O)O)c(OC)c1` came in with a solubility (kinetic) of 37 µg/mL (≈ 147 µM).
The compound `Cc1cccc(OCCC(=O)Nc2ccccc2C(N)=O)c1` registered a kinetic solubility of 44.2 µg/mL (≈ 148 µM).
In turn, `Cc1ccc2c(c1)N(CC(=O)N1CCCC1)C(=O)C(C)O2` (centres undefined) registered a solubility (kinetic) of over 43.3 µg/mL.
With `CCCc1c(C)nc2c(OC)cccc2c1SCC(=O)O`, the solubility (kinetic) came to 42.5 µg/mL (≈ 139 µM).
In the case of `Cn1cnnc1SCC(=O)Nc1ccc(F)cc1`, the kinetic solubility was over 39.9 µg/mL.
